Reference: patent US9227930B2, “Aminoindane derivatives, pharmaceutical compositions containing them, and their use in therapy” (ABBOTT LABORATORIES, priority 2010, dated 2016)
Counter-ions that a name gives are not always drawn.

What follows are molecules tested against human GlyT1c transporter (Homo sapiens (Human), UniProt P48067) (assay: Radioligand binding assay using recombinant CHO cell membranes expressing human GlyT1). Conditions: read-out: radioligand binding Kiapp.
Procedure: 2. Radioligand binding assays using recombinant CHO cell membranes expressing human GlyT1:
Radioligand binding to human GlyT1c transporter-expressing membranes was determined as described in Mezler et al., Molecular Pharmacology 74:1705-1715, 2008.

human GlyT1c transporter, sequence (P48067 whole entry): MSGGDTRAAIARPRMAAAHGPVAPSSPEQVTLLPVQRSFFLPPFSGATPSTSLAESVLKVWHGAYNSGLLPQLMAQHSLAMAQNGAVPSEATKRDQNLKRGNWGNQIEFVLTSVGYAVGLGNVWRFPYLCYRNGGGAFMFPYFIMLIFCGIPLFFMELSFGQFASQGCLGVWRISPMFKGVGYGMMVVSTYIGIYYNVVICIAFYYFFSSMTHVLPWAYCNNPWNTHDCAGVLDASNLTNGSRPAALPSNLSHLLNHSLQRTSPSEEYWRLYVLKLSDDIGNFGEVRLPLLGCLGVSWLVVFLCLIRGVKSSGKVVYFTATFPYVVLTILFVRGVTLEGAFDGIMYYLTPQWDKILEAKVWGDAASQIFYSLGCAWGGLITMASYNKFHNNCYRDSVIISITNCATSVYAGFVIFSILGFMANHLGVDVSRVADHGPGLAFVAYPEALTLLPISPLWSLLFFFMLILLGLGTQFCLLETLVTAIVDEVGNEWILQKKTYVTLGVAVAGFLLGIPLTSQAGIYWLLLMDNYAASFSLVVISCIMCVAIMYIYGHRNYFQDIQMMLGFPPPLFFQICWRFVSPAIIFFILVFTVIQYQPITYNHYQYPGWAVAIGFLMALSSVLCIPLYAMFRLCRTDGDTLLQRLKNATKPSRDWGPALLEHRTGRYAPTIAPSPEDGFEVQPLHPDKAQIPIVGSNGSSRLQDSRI

SMILES	Ki
CN[C@@H]1Cc2cc(F)c(CNS(=O)(=O)c3cn(C)cn3)cc2[C@@H]1Cc1ccccc1 (relative stereo) [Example 209a, cis-N-{[3-Benzyl-6-fluoro-2-(methylamino)-2,3-dihydro-1H-inden-5-yl]methyl}-1-methyl-1H-imidazole-4-sulfonamide]	≤ 10 nM
Cn1cnc(S(=O)(=O)NCCOc2ccc3c(c2)C(Cc2ccccc2)C(N2CC(C)(C)C2)C3)c1 (stereo not drawn) [Example 205, N-(2-{[3-Benzyl-2-(3,3-dimethylazetidin-1-yl)-2,3-dihydro-1H-inden-5-yl]oxy}ethyl)-1-methyl-1H-imidazole-4-sulfonamide]	≤ 100 nM
CN(CCOc1cc2c(cc1F)CC(N1CC(C)(O)C1)C2Cc1ccccc1)S(=O)(=O)c1cn(C)cn1 (stereo not drawn) [Example 207, N-(2-(3-Benzyl-6-fluoro-2-(3-hydroxy-3-methylazetidin-1-yl)-2,3-dihydro-1H-inden-5-yloxy)ethyl)-N,1-dimethyl-1H-imidazole-4-sulfonamide]	≤ 1000 nM
CN[C@@H]1Cc2cc(F)c(CNS(=O)(=O)c3cn(C)cn3)cc2[C@H]1Cc1ccccc1 (relative stereo) [Example 209b, trans-N-{[3-benzyl-6-fluoro-2-(methylamino)-2,3-dihydro-1H-inden-5-yl]methyl}-1-methyl-1H-imidazole-4-sulfonamide]	≤ 10 nM
CN[C@@H]1Cc2cc(F)c(OCCNS(=O)(=O)c3cn(C)cn3)cc2[C@@H]1Cc1ccccc1 (relative stereo) [Example 200, cis-N-(2-(3-Benzyl-6-fluoro-2-(methylamino)-2,3-dihydro-1H-inden-5-yloxy)ethyl)-1-methyl-1H-imidazole-4-sulfonamide]	≤ 100 nM
CC1CN(C2Cc3cc(F)c(OCCNS(=O)(=O)c4cn(C)cn4)cc3C2Cc2ccccc2)C1 (stereo not drawn) [Example 203, N-(2-(3-Benzyl-6-fluoro-2-(3-methylazetidin-1-yl)-2,3-dihydro-1H-inden-5-yloxy)ethyl)-1-methyl-1H-imidazole-4-sulfonamide]	≤ 100 nM
Cn1cnc(S(=O)(=O)NCCOc2cc3c(cc2F)C[C@@H](N2CC(C)(O)C2)[C@H]3Cc2ccccc2)c1 (relative stereo) [Example 206, cis-N-(2-{[3-Benzyl-6-fluoro-2-(3-hydroxy-3-methylazetidin-1-yl)-2,3-dihydro-1H-inden-5-yl]oxy}ethyl)-1-methyl-1H-imidazole-4-sulfonamide]	≤ 100 nM
Cn1cnc(S(=O)(=O)NCCOc2cc3c(cc2F)C[C@@H](N2CCC2)[C@H]3Cc2ccccc2)c1 (relative stereo) [Example 201, cis-N-(2-{[2-(Azetidin-1-yl)-3-benzyl-6-fluoro-2,3-dihydro-1H-inden-5-yl]oxy}ethyl)-1-methyl-1H-imidazole-4-sulfonamide]	≤ 100 nM

Other lines, results leading:

Ki	SMILES
≤ 1000 nM	CCOC(=O)NC1Cc2ccc(OCCNS(=O)(=O)c3cn(C)cn3)cc2C1Cc1ccccc1 (stereo not drawn) [Example 195, Ethyl 1-benzyl-6-(2-(1-methyl-1H-imidazole-4-sulfonamido)ethoxy)-2,3-dihydro-1H-inden-2-ylcarbamate]
≤ 10 nM	Cn1cnc(S(=O)(=O)NCCOc2ccc3c(c2)C(Cc2ccccc2)C(N2CCC2)C3)c1 (stereo not drawn) [Example 202, N-(2-(2-(Azetidin-1-yl)-3-benzyl-2,3-dihydro-1H-inden-5-yloxy)ethyl)-1-methyl-1H-imidazole-4-sulfonamide]
≤ 10 nM	CNC1Cc2ccc(OCCNS(=O)(=O)c3cn(C)cn3)cc2C1Cc1ccccc1 (stereo not drawn) [Example 199, N-(2-(3-Benzyl-2-(methylamino)-2,3-dihydro-1H-inden-5-yloxy)ethyl)-1-methyl-1H-imidazole-4-sulfonamide]
≤ 100 nM	Cn1cnc(S(=O)(=O)NCCOc2ccc3c(c2)C(Cc2ccccc2)C(N)C3)c1 (stereo not drawn) [Example 197, N-{2-[(2-Amino-3-benzyl-2,3-dihydro-1H-inden-5-yl)oxy]ethyl}-1-methyl-1H-imidazole-4-sulfonamide hydrochloride]
≤ 100 nM	CC1CN(C2Cc3ccc(OCCNS(=O)(=O)c4cn(C)cn4)cc3C2Cc2ccccc2)C1 (stereo not drawn) [Example 204, N-(2-(3-Benzyl-2-(3-methylazetidin-1-yl)-2,3-dihydro-1H-inden-5-yloxy)ethyl)-1-methyl-1H-imidazole-4-sulfonamide]
≤ 10000 nM	CCOC(=O)NC1Cc2ccc(OCCNS(=O)(=O)c3nccn3C)cc2C1Cc1ccccc1 (stereo not drawn) [Example 196, Ethyl 1-benzyl-6-(2-(1-methyl-1H-imidazole-2-sulfonamido)ethoxy)-2,3-dihydro-1H-inden-2-ylcarbamate]
≤ 10000 nM	Cn1ccnc1S(=O)(=O)NCCOc1ccc2c(c1)C(Cc1ccccc1)C(N)C2 (stereo not drawn) [Example 198, N-(2-(2-Amino-3-benzyl-2,3-dihydro-1H-inden-5-yloxy)ethyl)-1-methyl-1H-imidazole-2-sulfonamide hydrochloride]
